Source: ChEMBL document CHEMBL3045010, “Radical scavenging capacities of some thiazolylthiazolidine-2,4-dione derivatives” (Med Chem Res, 2009)

Experiments:
Assay type in all cases: functional
[1] = Antioxidant activity against assessed as superoxide scavenging activity measuring reduction of cytochrome C at 10 '-4 M by spectrophotometry relative to control; set-up: scale not given: the % may be the effect or the level left
[2] = tested on: Radical scavenging activity; experiment: Antioxidant activity against assessed as DPPH radical scavenging activity at 10 '-4 M after 30 min by spectrophotometry relative to control
[3] = tested on: Radical scavenging activity; experiment: Antioxidant activity against assessed as DPPH radical scavenging activity at 10 '-3 M after 30 min by spectrophotometry relative to control
[4] = Antioxidant activity against assessed as superoxide scavenging activity measuring reduction of cytochrome C at 10 '-3 M by spectrophotometry relative to control; set-up: scale not given: the % may be the effect or the level left
[5] = tested on: Radical scavenging activity; experiment: Antioxidant activity against assessed as DPPH radical scavenging activity at 2 x 10 '-4 M after 30 min by spectrophotometry relative to control
[6] = tested on: Radical scavenging activity; experiment: Antioxidant activity against assessed as DPPH radical scavenging activity at 1.25 x 10 '-4 M after 30 min by spectrophotometry relative to control

| SMILES | Activity [1] [%] | Activity [2] [%] | Activity [3] [%] | Activity [4] [%] | Activity [5] [%] | Activity [6] [%] |
| --- | --- | --- | --- | --- | --- | --- |
| O=C1S/C(=C\c2sc(SCc3ccccc3)nc2Cl)C(=O)N1Cc1ccccc1 | 86 | 77 | 26 | 50 |  |  |
| O=C1S/C(=C\c2sc(Cl)nc2Cl)C(=O)N1Cc1ccc([N+](=O)[O-])cc1 | 114 | 52 | 9 | 339 |  |  |
| O=C1S/C(=C\c2sc(Cl)nc2Cl)C(=O)N1Cc1ccc(Cl)cc1 | 32 | 73 | 57 | 9 |  |  |
| O=C1S/C(=C\c2sc(Cl)nc2Cl)C(=O)N1Cc1ccc(Cl)cc1Cl | 110 | 12 | 9 | 99 |  |  |
| O=C1S/C(=C\c2sc(SCc3ccccc3)nc2Cl)C(=O)N1Cc1ccc(F)cc1 | 98 | 67 | 21 | 52 |  |  |
| O=C1S/C(=C\c2sc(SCc3ccccc3)nc2Cl)C(=O)N1Cc1ccc(Cl)cc1 | 91 | 72 | 20 | 31 |  |  |
| O=C1S/C(=C\c2sc(Cl)nc2Cl)C(=O)N1Cc1ccc(F)cc1 | 129 | 28 | 11 | 73 |  |  |
| O=C1S/C(=C\c2sc(Cl)nc2Cl)C(=O)N1Cc1ccccc1 | 352 | 47 | 12 | 154 |  |  |
| O=C1S/C(=C\c2sc(SCc3ccccc3)nc2Cl)C(=O)N1Cc1ccc(Br)cc1 | 88 | 74 | 19 | 35 |  |  |
| O=C1S/C(=C\c2sc(SCc3ccccc3)nc2Cl)C(=O)N1Cc1ccc([N+](=O)[O-])cc1 | 96 | 43 | 14 | 11 |  |  |
| O=C1S/C(=C\c2sc(Cl)nc2Cl)C(=O)N1Cc1ccc(Br)cc1 | 127 | 28 | 9 | 124 |  |  |
| O=C1S/C(=C\c2sc(SCc3ccccc3)nc2Cl)C(=O)N1Cc1ccc(Cl)cc1Cl | 101 | 58 | 20 | 16 |  |  |
| Cc1cc(C(C)(C)C)c(O)c(C(C)(C)C)c1 |  |  | 17 |  | 37 | 52 |
